Results from PubChem BioAssay (NCI).
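1) Cells in 96-well plates. 2) Compound, 48 h, 5 concentrations. 3) Linear interpolation between surrounding doses. 4) Unreached endpoint = highest concentration. TGI marks complete inhibition of growth.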

Key:
Experiment in all cases: NCI anticancer screen, dose series, 48 h
NCI/ADR-RES ovarian = system: NCI/ADR-RES ovarian
KM12 colon = system: KM12 colon
HCT-15 colon = system: HCT-15 colon
SK-MEL-5 melanoma = system: SK-MEL-5 melanoma
PC-3 prostate = system: PC-3 prostate
DU-145 prostate = system: DU-145 prostate
EKVX NSCLC = system: EKVX NSCLC
LOX IMVI melanoma = system: LOX IMVI melanoma
SK-MEL-28 melanoma = system: SK-MEL-28 melanoma
OVCAR-8 ovarian = system: OVCAR-8 ovarian
IGROV1 ovarian = system: IGROV1 ovarian
MDA-MB-435 = system: MDA-MB-435
MALME-3M melanoma = system: MALME-3M melanoma
SF-295 CNS = system: SF-295 CNS
RXF 393 renal = system: RXF 393 renal
HCT-116 colon = system: HCT-116 colon
NCI-H460 lung = system: NCI-H460 lung
SW-620 colon = system: SW-620 colon
HOP-62 NSCLC = system: HOP-62 NSCLC
OVCAR-4 ovarian = system: OVCAR-4 ovarian

Row | Compound | TGI (NCI/ADR-RES ovarian) | TGI (KM12 colon) | TGI (HCT-15 colon) | TGI (SK-MEL-5 melanoma) | TGI (PC-3 prostate) | TGI (DU-145 prostate) | TGI (EKVX NSCLC) | TGI (LOX IMVI melanoma) | TGI (SK-MEL-28 melanoma) | TGI (OVCAR-8 ovarian) | TGI (IGROV1 ovarian) | TGI (MDA-MB-435) | TGI (MALME-3M melanoma) | TGI (SF-295 CNS) | TGI (RXF 393 renal) | TGI (HCT-116 colon) | TGI (NCI-H460 lung) | TGI (SW-620 colon) | TGI (HOP-62 NSCLC) | TGI (OVCAR-4 ovarian)
1 | CCOC(=O)C1=c2[nH]c3cccc4cccc(c43)n2C(=O)CC1c1ccccc1 (configuration not stated) | > 100 µM | > 100 µM | > 100 µM | > 100 µM | > 100 µM | > 100 µM | > 100 µM | > 100 µM | > 100 µM | > 100 µM | > 100 µM | > 100 µM | > 100 µM | > 100 µM | > 100 µM | > 100 µM | > 100 µM | > 100 µM | > 100 µM | > 100 µM
2 | COC(=O)/C=C(/C(=O)OC)c1cc2ccc3c([nH]c4ccccc43)c(C)c-2c1 | > 100 µM | 36.5 µM | 29 µM | 9.18 µM | 14.2 µM | 42.2 µM | 24.2 µM | 14.5 µM | 30.2 µM | 25.2 µM | 13.1 µM | 25.1 µM | 19.6 µM | 16.4 µM | > 100 µM | 16.3 µM | 18.6 µM | 27.1 µM | 37.5 µM | 69.3 µM
3 | COc1ccc(-c2nnc3n(Cc4ccccc4)c4ccccc4n3c2=O)cc1 | > 100 µM | > 100 µM | > 100 µM | > 100 µM | 32.4 µM | > 100 µM | > 100 µM | > 100 µM | > 100 µM | > 100 µM | 63.7 µM | > 100 µM | > 100 µM | 41.8 µM | 61.8 µM | > 100 µM | > 100 µM | > 100 µM | 12.2 µM | 43.6 µM
4 | O=c1c(C2=NCCC2)c(-c2ccc[nH]2)[nH]n1-c1ccccc1 | > 100 µM | > 100 µM | > 100 µM | > 100 µM | > 100 µM | > 100 µM | > 100 µM | > 100 µM | > 100 µM | > 100 µM |  | > 100 µM | > 100 µM | > 100 µM | > 100 µM | > 100 µM | > 100 µM | > 100 µM |  | > 100 µM
5 | COc1cccc(C2ON=C(c3ccccc3)N2C23CC4CC(CC(C4)C2)C3)c1 (configuration not stated) | > 10 µM | > 10 µM | > 10 µM | > 10 µM | > 10 µM | > 10 µM | > 10 µM | > 10 µM | > 10 µM | > 10 µM | > 10 µM | > 10 µM | > 10 µM | > 10 µM | > 10 µM | > 10 µM | > 10 µM | > 10 µM | > 10 µM | > 10 µM
6 | CCN1C(=O)/C(=C2\SC(c3ccccc3)(c3ccccc3)c3ccccc32)SC1=S | > 100 µM | > 100 µM | > 100 µM | > 100 µM | > 100 µM | > 100 µM | > 100 µM | > 100 µM | > 100 µM | > 100 µM | > 100 µM | > 100 µM | > 100 µM | > 100 µM | > 100 µM | > 100 µM | > 100 µM |  | 68.1 µM | > 100 µM
7 | O=C1CCCC(=O)N1n1c(Cc2ccccc2)n[nH]c1=O | > 100 µM | > 100 µM | > 100 µM | > 100 µM | > 100 µM | > 100 µM | > 100 µM | > 100 µM | > 100 µM | > 100 µM | > 100 µM | > 100 µM | > 100 µM | > 100 µM | > 100 µM | > 100 µM |  | > 100 µM | > 100 µM | > 100 µM
8 | CN1C(=O)C(C(N)=O)C2CC1(C)Oc1ccccc12 (configuration not stated) | > 100 µM | > 100 µM | > 100 µM | > 100 µM | > 100 µM | > 100 µM | > 100 µM | > 100 µM | > 100 µM | > 100 µM | > 100 µM | > 100 µM | > 100 µM |  | > 100 µM | > 100 µM | > 100 µM | > 100 µM | > 100 µM | > 100 µM
9 | CSc1c(C(=O)Nc2ccc(C)cc2)c(N)n(N)c(=O)c1C#N | > 100 µM | > 100 µM | > 100 µM | > 100 µM | > 100 µM | > 100 µM | > 100 µM | > 100 µM | > 100 µM | > 100 µM | > 100 µM | > 100 µM | > 100 µM |  | > 100 µM | > 100 µM | > 100 µM | > 100 µM |  | > 100 µM
10 | C=CCc1cc(C=C(C#N)C#N)cc(OC)c1O | > 100 µM | > 100 µM | > 100 µM | > 100 µM | > 100 µM | > 100 µM | > 100 µM | > 100 µM | > 100 µM | > 100 µM | > 100 µM | > 100 µM | > 100 µM | > 100 µM | > 100 µM | > 100 µM | > 100 µM | > 100 µM |  | > 100 µM
